# According to patent publication US20240398768A1, “METHODS OF TREATING SOLID TUMOR USING HETEROAROMATIC MACROCYCLIC ETHER COMPOUNDS” (Nuvalent, Inc., priority 2021, published 2024):
# Tested on: NIH3T3 cells expressing ROS1 fusions with G2032R
# Test: Anchorage-independent colony formation assay
# Assay type: cell-based
# Conditions: at 100 nM
# Protocol: Each inhibitor was paired with its own DMSO condition to serve as an accurate control. NIH3T3 cells expressing CD74-ROS1 or EZR-ROS1 wild-type or mutant fusions were plated in 0.4% agarose in complete medium at a density of 2,000 cells per 0.5 mL of agarose with DMSO or inhibitor at identical concentration to the bottom layer. Plates were incubated for 4 weeks, and each well was fed 3× per week with 75 μL of complete medium with or without inhibitor to match each plated condition to prevent drying of the agarose. Plates were read after 3 and 4 weeks using a GelCount™ (Oxford Optronix). Colony counts were averaged by condition and normalized to the colony counts from paired DMSO conditions. Data analysis and visualization was performed using Microsoft Excel and GraphPad Prism.
smiles,measurement,value
"CN1CCN(c2ccc(C(=O)Nc3n[nH]c4ccc(Cc5cc(F)cc(F)c5)cc34)c(NC3CCOCC3)c2)CC1 [Entrectinib, reference compound]",inhibition of colony formation,weaker effects
